According to US20170224758A1, “COMPOSITIONS AND METHODS OF TREATING MUSCULAR DYSTROPHY” (THE BROAD INSTITUTE, INC., priority 2014, published 2017):

Molecular target: T1, Myogenin (Mus musculus, UniProt P12979)
T1 construct: electrophoretic mobility shift assays (EMSA) were carried out using muscle cell nuclear extracts; host or cells: C2C12 nuclear extract
T1 sequence (P12979 1-224): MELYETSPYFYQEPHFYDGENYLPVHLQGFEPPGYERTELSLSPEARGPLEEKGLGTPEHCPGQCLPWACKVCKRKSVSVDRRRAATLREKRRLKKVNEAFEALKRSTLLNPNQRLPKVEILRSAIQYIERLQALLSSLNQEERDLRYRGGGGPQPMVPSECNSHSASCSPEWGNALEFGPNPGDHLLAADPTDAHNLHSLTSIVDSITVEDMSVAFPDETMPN
Assay: Electrophoretic mobility shift assay (EMSA) with muscle cell nuclear extracts
Type: binding
Details: biotin labeled probe, C2C12 nuclear extract

Sequence	binding of Myogenin protein (EMSA)
CTCCTTTATTTCAGCTGAACTAAAGAAGTCTC (DNA, backbone and methylation of C not given here; duplex with complementary strand, biotin-labeled probe or unlabeled competitor) [T probe, biotin labeled duplex EMSA probe with the escaper variant of the Jagged1 promoter]	robustly bound
CTCCTTTATTTCAGCGGAACTAAAGAAGTCTC (DNA, backbone and methylation of C not given here; duplex with complementary strand, biotin-labeled probe or unlabeled competitor) [G probe]	did not bind at all
